# Several values for one entry are separate records, joined by “and”; a condition that tells them apart may be missing. Identical values can stand only once.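 Cultured in 96-well plates, cells were exposed to test compound for 48 hours across five concentrations. GI50 = concentration required for 50% inhibition of growth. TGI is the concentration that stops growth completely.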 Where a SMILES comes first, the peptide text is derived from it. The star is where a group is joined. Cbz = O=C(OCc1ccccc1)*
# Assays:
# Test in all cases: NCI-60 cell line screen, 48 h
# [1] = tested on: COLO 205 colon
# [2] = tested on: SR leukemia
# [3] = tested on: HOP-62 NSCLC
# [4] = tested on: DU-145 prostate
# [5] = tested on: MDA-N
# [6] = tested on: HT29 colon
# [7] = tested on: SK-MEL-5 melanoma
# [8] = tested on: UACC-257 melanoma
# [9] = tested on: KM12 colon
# [10] = tested on: HOP-92 NSCLC
# [11] = tested on: NCI-H460 lung
# [12] = tested on: HS 578T breast
# [13] = tested on: SK-OV-3 ovarian
# [14] = tested on: MALME-3M melanoma
SMILES,TGI [1],TGI [2],TGI [3],TGI [4],TGI [5],TGI [6],TGI [7],TGI [8],TGI [9],TGI [10],TGI [11],TGI [12],TGI [13],TGI [14],GI50 [1],GI50 [9]
O=C(/C=C/c1ccc(Cl)c(Cl)c1)Oc1ccc(/C=C2\CCCCC2=O)cc1,> 100 µM,> 100 µM,> 100 µM,> 100 µM,> 100 µM,> 100 µM,> 100 µM,> 100 µM,> 100 µM,> 100 µM,> 100 µM,> 100 µM,–,–,–,–
NC(=O)N(O)c1cccc(Br)c1,> 100 µM,> 100 µM,> 100 µM,> 100 µM,> 100 µM,> 100 µM,> 100 µM,> 100 µM,> 100 µM,> 100 µM,> 100 µM,> 100 µM,> 100 µM,–,–,–
Cc1cc(=Nc2ccc3c(c2)c(N)cc(C)[n+]3C)nc(N)n1C,> 100 µM,> 100 µM,> 100 µM,> 100 µM,> 100 µM,> 100 µM,> 100 µM,> 100 µM,> 100 µM,> 100 µM,> 100 µM,> 100 µM,> 100 µM,> 100 µM,–,–
O=C1c2ccccc2C(=O)N1c1ccc(OCCN2CCCCC2)cc1,> 100 µM,> 100 µM,> 100 µM,> 100 µM,> 100 µM,> 100 µM,> 100 µM,> 100 µM,> 100 µM,> 100 µM,> 100 µM,> 100 µM,> 100 µM,> 100 µM,–,–
C[C@@H]1CCC2[C@@H](C)C(=O)O[C@@H]3C4C[C@@H]1[C@@]23OO[C@@]4(C)O (stereo partly specified),> 100 µM,> 100 µM,> 100 µM,> 100 µM,> 100 µM,> 100 µM,> 100 µM,> 100 µM,> 100 µM,> 100 µM,> 100 µM,> 100 µM,–,> 100 µM,–,–
C=CCn1c(=O)c(C)cn(/C(=C/C(=O)OCC)C(=O)OCC)c1=O,15.2 µM,13.3 µM,> 100 µM,> 74.3 µM,33.7 µM,25.8 µM,36.3 µM,55.5 µM,36 µM,17.2 µM,> 68.9 µM,76.1 µM,> 100 µM,29.2 µM,–,–
CCCCCCCCCN1CCC(=O)C(C(=O)OC)C1 (stereo unspecified),30.8 µM,18.1 µM,31.3 µM,29.3 µM,29.5 µM,22.7 µM,33 µM,24.7 µM,13.1 µM,33.9 µM,32.9 µM,36.6 µM,31.1 µM,–,–,–
O/N=C\c1cc(O)c(O)c(/C=N/O)c1,> 100 µM,> 100 µM,> 100 µM,> 100 µM,> 100 µM,> 100 µM,> 100 µM,> 100 µM,> 100 µM,> 100 µM,> 100 µM,> 100 µM,> 100 µM,> 100 µM,–,–
COc1cc2c(cc1OC)CCN=C2,> 100 µM,> 100 µM,> 100 µM,> 100 µM,> 100 µM,> 100 µM,> 100 µM,> 100 µM,> 100 µM,> 100 µM,> 100 µM,> 100 µM,> 100 µM,> 100 µM,–,–
CO[C@H]1O[C@@H]2CO[C@@H](c3ccccc3)O[C@H]2C[C@]12CCC/C=C\CO2,26.6 µM,31.8 µM,44.4 µM,> 75 µM,26.9 µM,40.5 µM,44.1 µM,> 75 µM,> 75 µM,28.4 µM,> 75 µM,40 µM,> 75 µM,26.4 µM,–,–
COC(=O)CCCCC/C(=C\C(=O)C(Cl)(Cl)Cl)OC,57.7 µM,45.2 µM,> 100 µM,63.1 µM,71.3 µM,72.6 µM,> 100 µM,57.7 µM,95 µM,57.1 µM,76.9 µM,97.1 µM,> 100 µM,65.2 µM,–,–
CC(C)(C)C=C=C(C(C)(C)C)P(=O)(O)O,> 100 µM,> 100 µM,> 100 µM,> 100 µM,> 100 µM,> 100 µM,> 100 µM,> 100 µM,> 100 µM,> 100 µM,> 100 µM,> 100 µM,> 100 µM,> 100 µM,–,–
O=C(/C=C/c1ccc(O)c(O)c1)OCCOC(=O)/C=C/c1ccc(O)c(O)c1,42.3 µM,58.9 µM,47.4 µM,79.8 µM,41.6 µM,43.4 µM,32.7 µM,44.5 µM,41.8 µM,> 100 µM,> 100 µM,> 100 µM,55.5 µM,> 100 µM,–,–
CC/C(Cl)=N\OC(=O)Nc1ccc(C#N)cc1,3.3 µM,22.7 µM,39.2 µM,29.6 µM,30 µM,36.9 µM,25.9 µM,29.8 µM,31.6 µM,8.54 µM,36.2 µM,57.8 µM,22.3 µM,8.25 µM,–,–
Cc1ccc(C2=Nc3c(N)nc(N)nc3NC(c3ccccc3)C2)cc1 (stereo unspecified),14 µM and 25.3 µM,> 100 µM,25.5 µM and 22.3 µM,28.3 µM and 29.3 µM,5.64 µM and 5.72 µM,14.1 µM and 14.8 µM,34.4 µM,24.6 µM and 32.4 µM,13.8 µM and 33.7 µM,24.3 µM and 24.9 µM,28.3 µM,33.9 µM and 41.1 µM,27.1 µM and 27.6 µM,23.6 µM and 24.5 µM,5.21 µM and 11.4 µM,3.97 µM and 18 µM
CC1(C)CC(=O)c2c(nc3ccc4ccccc4c3c2-c2ccc(NC(=O)CCCCC(=O)Nc3ccc(-c4c5c(nc6ccc7ccccc7c46)CC(C)(C)CC5=O)cc3)cc2)C1,> 100 µM,> 100 µM,> 100 µM,> 100 µM,> 100 µM,> 100 µM,> 100 µM,> 100 µM,> 100 µM,> 100 µM,> 100 µM,> 100 µM,> 100 µM,–,–,–
O=C1OC(CN2CCN(c3ccccc3)CC2)CN1C(=S)Nc1ccccc1 (stereo unspecified),> 100 µM,> 100 µM,> 100 µM,> 100 µM,> 100 µM,> 100 µM,> 100 µM,> 100 µM,> 100 µM,> 100 µM,> 100 µM,> 100 µM,> 100 µM,> 100 µM,–,–
CC(C)(C)OC(=O)NC(Cc1ccc([N+](=O)[O-])cc1)C(=O)NC(CCCCNC(=O)OCc1ccccc1)C(=O)ON1C(=O)CCC1=O (stereo unspecified),> 100 µM,> 100 µM,> 100 µM,> 100 µM,> 100 µM,> 100 µM,> 100 µM,–,> 100 µM,> 100 µM,> 100 µM,> 100 µM,> 100 µM,> 100 µM,–,–
CC(C)[Si](OC1=CCCCCC12C(=O)N(C)c1ccccc12)(C(C)C)C(C)C (stereo unspecified),35.8 µM,67.3 µM,58.1 µM,29.9 µM,79.7 µM,41.1 µM,33.8 µM,45.8 µM,38 µM,30.8 µM,38.4 µM,61.6 µM,46.6 µM,45.8 µM,–,–
COc1ccc(C)cc1NC(=S)N/N=C/c1ccc(SC)cc1,> 100 µM,> 100 µM,> 100 µM,> 100 µM,> 100 µM,> 100 µM,51.9 µM,–,> 100 µM,> 100 µM,–,> 100 µM,91.4 µM,> 100 µM,–,–
CCOC(=O)c1nc2cc(C(F)(F)F)ccc2nc1Nc1ccc(Cl)c(Cl)c1,> 100 µM,> 100 µM,> 100 µM,> 100 µM,> 100 µM,> 100 µM,> 100 µM,> 100 µM,> 100 µM,94.1 µM,> 100 µM,> 100 µM,> 100 µM,> 100 µM,–,–
NC(CCCCNc1ccn(C2OC(CO)C(O)C2O)c(=O)n1)C(=O)O (stereo unspecified),> 100 µM,> 100 µM,–,> 100 µM,> 100 µM,–,> 100 µM,> 100 µM,> 100 µM,> 100 µM,> 100 µM,> 100 µM,–,> 100 µM,–,–
Cc1nc2c(-c3ccccc3)[nH]c(C)c2c(=O)o1,> 100 µM,> 100 µM,> 100 µM,> 100 µM,> 100 µM,> 100 µM,> 100 µM,> 100 µM,> 100 µM,> 100 µM,> 100 µM,> 100 µM,> 100 µM,–,–,–
COc1nc(=O)n(C2CC(N=[N+]=[N-])C(CO)O2)cc1C (stereo unspecified),–,> 100 µM,> 100 µM,> 100 µM,> 100 µM,> 100 µM,> 100 µM,> 100 µM,> 100 µM,> 100 µM,> 100 µM,> 100 µM,–,> 100 µM,–,–
CCOC(=O)C(C)NC(=O)C(C)NC(=O)C(C)NC(=O)C(C)NC(=O)C(C)NC(=O)C(C)NC(=O)C(C)NC(=O)OCc1ccccc1 (stereo unspecified) (Cbz-AAAAAAA-OEt; configuration not given here),> 100 µM,> 100 µM,> 100 µM,> 100 µM,> 100 µM,> 100 µM,> 100 µM,–,> 100 µM,> 100 µM,> 100 µM,> 100 µM,> 100 µM,> 100 µM,–,–

# Source: PubChem BioAssay (NCI)
